What all share (assay type): in vivo
The subject of experiment [1] is chemotherapy induced peripheral neuropathy. Kind of experiment: Example 1: human subject with chemotherapy induced peripheral neuropathy, Treatment-Induced Neuropathy Assessment Scale and reported symptoms. The settings on record: patient history before the disclosed treatment. The source says:
A patient complained of a tingling and burning sensation in their hands and feet that began shortly after they commenced chemotherapy. The patient had been previously diagnosed with primary peritoneal cervical cancer. While it was recommended that the patient undergo chemotherapy treatment for 18 weeks, the patient was unable to tolerate the side effects of the treatment after 11 weeks and ceased the treatment sessions. […] The patient experienced the same side effects again and sought help to alleviate their pain.
Upon physical examination by a practicing physician their gait was abnormal. Some of their symptoms included: • (a) The patient had poor coordination. In particular, when the patient would stop looking at their feet, they would lose all sense of proprioception (i.e., their sense of the relative position of the body and strength of effort being employed in movement) was lost. The patient thus used a cane as they had trouble with stability. • (b) The patient's sense of touch was poor. For example, the patient could not distinguish different textures as everything felt like silk to them. • (c) The patient's sense of temperature was also poor. […] • (d) There was an altered temperature sensation. They were hyper sensitized to slight changes in temperature. […] They could not write, hold a phone, pick up change, buckle themself in a seat, or dress themself. In the absence of a stimulus, the patient felt the tingling, burning sensations in their hands and feet. • (e) The patient's sensations would be exacerbated upon the introduction of a non-noxious stimulus.
Based on the above, the patient was diagnosed with chemotherapy induced peripheral neuropathy. […] Some of the attempted medications were PERCOSET, GABAPENTIN, TYLENOL, ADVIL, LIDOCAINE, and CAPSAICIN. Numerous other over-the-counter medications were tried. Other attempted treatments included acupuncture.
In an embodiment of the presently disclosed treatment, a formulation of topical doxycycline hyclate suspension at a concentration of 400 mg/g. The prescribed administration included applying the formulation to the patient's hands and feet 2-3 times daily as needed for the pain. Each dose was 2 ml per foot, per hand, and per leg. Over the course of at least 18 months, the patient used the formulation every day during the remainder of the patient's second regiment of chemotherapy. […] In particular, immediately after applying the topical doxycycline for the very first time, the patient found relief in the tingling, burning feeling in the hands and feet. […] They were able to pick up change.
Quantitatively, data was collected for at least 7 months on a “Treatment-Induced Neuropathy Assessment Scale” as shown in Table 1 below. The scale was proven in the scientific literature to be an effective tool to quantify change in symptoms presented by patients with peripheral neuropathy. The patient needed to assess their pain from a scale of 0 (non-existent) to 10 (unbearable pain). Throughout all the categories, the patient's pain went down. In some categories the pain was diminished altogether.

The subject of the next experiment is idiopathic neuropathy. Put plainly: Example 7: human subject with idiopathic neuropathy. The settings on record: patient statement. On the procedure: The following in vivo study of a human subject diagnosed with idiopathic neuropathy.
A patient presented with idiopathic ice-cold burning sensations on the lateral surface area of the right shin/calf. The pain began 6 years ago and has stayed constant.
The patient then began a new treatment course to alleviate the pain. This treatment is the presently disclosed novel formulation of topical doxycycline hyclate suspension at a concentration of 400 mg/g. Each dose was 4m1 to the affected right shin. They applied it topically to the affected areas when they were feeling the pain. They began applying it only once a day for 2 weeks before bed.

For another experiment, the system named is multiple sclerosis. Kind of experiment: Example 5: human subject with multiple sclerosis, leg pain triggered by AVONEX injection. The settings on record: patient history. The source says:
The following in vivo study of a human subject diagnosed with multiple sclerosis.
A patient presented with excruciating pain in their quadriceps that extended down to their calves. The pain was triggered by the weekly injection of AVONEX (interferon beta-1a) the patient was taking in order to manage their multiple sclerosis. They could not sleep due to the pain.
The patient then began a new treatment course to alleviate the pain. This treatment is a novel formulation of topical doxycycline hyclate suspension at a concentration of 400 mg/g. Each dose was 4 ml per leg and 2 ml per arm/hands. They applied it to the affected areas when they were feeling the pain. They also applied it at work when they would get pains from handling complex machines such as nail guns.

Another experiment deals with osteoarthritis. Put plainly: Example 6: human subject with osteoarthritis in both knees. As to conditions: patient history; side effects put them in a worse state. Here is the method:
The following in vivo study of a human subject diagnosed with osteoarthritis.
A patient presented with osteoarthritis in both knees due to a previous trauma years ago in their life. Their knees are in a constant state of pain and inflammation. They also have arthritis in the toe joints and shoulder.
The patient then began a new treatment course to alleviate the pain. This treatment is a novel formulation of topical doxycycline hyclate suspension at a concentration of 400 mg/g. Each dose was 2 ml per knee. They applied it to the affected areas when they were feeling the pain. By the next day the patient feels minimal pain. They apply 1.5 ml of the topical doxycycline suspension daily for a week at night. […] undergoes this treatment once every 4-6 months.

For experiment [2], the system named is osteoarthritis of the left knee. Put plainly: Example 2: human subject with osteoarthritis of the left knee. As to conditions: patient history; once relieved pain for 3 months. The source says: The following in vivo study of a human subject diagnosed with osteoarthritis of the left knee.
A patient presented with complaints of left knee pain. The patient had been previously diagnosed with progressive osteoarthritis of the left knee. They had undergone two knee surgeries, but the pain came back within a few months. […] Their specialist said that the they were too young and too overweight for a full knee replacement surgery so they must rely on narcotic pain medications and hydrocortisone shots until they are a good candidate for the replacement surgery.
The patient then began the currently disclosed treatment course to alleviate the pain from their osteoarthritis. As already discussed, the currently disclosed treatment is a topical doxycycline hyclate suspension at a concentration of 400 mg/g. They applied it to the knee twice a day. Each dose was approximately 4 ml per knee spread topically over the knee. Preferably, an application covers the affected area with a thin layer of the suspension. One application was before bedtime and the other was in the morning before going to work. The patient has been using it every day for the past month.

The record followed here is US12005068B2, “Formulation including doxycycline hyclate and method for administering the same” (priority 2017, dated 2024).

Structures are written as SMILES.

`CC(C)Cc1ccc(C(C)C(=O)O)cc1` (stereo not shown) [ADVIL, ibuprofen]: the “effect of previously attempted medications on the patient's symptoms” value (“effect … on the patient's symptoms” below) in experiment [1] is on record as “failed to address the patient's symptoms”.
On the same count and under the same terms, to `COc1cc(CNC(=O)CCCC/C=C/C(C)C)ccc1O` [CAPSAICIN] belongs “failed to address the patient's symptoms”; to `NCC1(CC(=O)O)CCCCC1` [GABAPENTIN], “failed to address the patient's symptoms”.
Consider `CC(C)Cc1ccc(C(C)C(=O)O)cc1` (stereo not shown) [Ibuprofen], for which the “effect of previous medications on pain” value in the experiment on idiopathic neuropathy is “did not help”.
On to `CCN(CC)CC(=O)Nc1c(C)cccc1C` [LIDOCAINE], for which the “effect … on the patient's symptoms” value in experiment [1] was “failed to address the patient's symptoms”.
On to `CC(C)Cc1ccc(C(C)C(=O)O)cc1` (stereo not shown) [MOTRIN, ibuprogen], for which, in the experiment on multiple sclerosis, the “effect of previously taken medications on pain” value was “not as effective as they hoped”.
On to `CC(=O)Nc1ccc(O)cc1` [TYLENOL, acetaminophen], for which the “effect of previously taken medications on pain” value in the experiment with multiple sclerosis is listed as “not as effective as they hoped”. Further, in the experiment with osteoarthritis, the “effect of previously tried medications on pain” value is reported as “did not help manage the pain”. Besides, the “effect … on the patient's symptoms” value in experiment [1] was “failed to address the patient's symptoms”.
Regarding `C[C@]12CCC(=O)C=C1CC[C@@H]1[C@@H]2[C@@H](O)C[C@@]2(C)[C@H]1CC[C@]2(O)C(=O)CO` [hydrocortisone], the “duration of pain relief after shots” value in experiment [2] is given as 3 weeks.
